Measured values as given in US20220152044A1, “TREATMENT OF INFLAMMATORY DISEASES OF THE CENTRAL NERVOUS SYSTEM” (PALMAYA PTY LTD, priority 2019, published 2022).

Columns and labels:
craving for nicotine = assay: Nicotine craving and use in patients; assay type: in vivo, human; conditions: flumazenil by infusion or nasally/sublingually 50 to 200 micrograms per dose
cannabis withdrawal = assay: Withdrawal from cannabis with high THC concentrations; assay type: in vivo, human; conditions: naltrexone implants, plasma concentration 0.5 ng/ml to 10 ng/ml or more
From the text: Cannabis use has changed in recent years with a significant cohort describing high tetrahydrocannabinol (THC) concentrations in potent strains which are cultivated for their high THC content. In the patient group using these high concentrations of THC, we have noted that a group of patients give a clear cut history of extreme nausea, vomiting, anxiety changing to serious paranoid thoughts and delusions followed by psychosis over the first 3-5 days of ceasing drug use.
In a severe patient population, ondansetron may be given every 6-8 hours to assist in reducing the nausea and associated anxiety symptoms.
Our results indicated a clear reduction in anxiety, and paranoid symptoms, allowing patients who otherwise would be unable to cope with the symptoms, to cease cannabis use.

HPA axis = HPA axis in stressed animals; assay type: in vivo
From the text: For this reason the combination of sustained release naltrexone and sustained release flumazenil using injections, implants or infusions would be expected to limit neuro-inflammatory diseases and their symptoms.

PTSD = PTSD patients treated with flumazenil and/or naltrexone; assay type: in vivo, human; conditions: severe case, had occurred for 6 years; naltrexone implant inserted
From the text: Post Trauma Stress Disorder (PTSD), causes dysregulation of anxiety control that may damage the GABAA system and present as hypervigilance, sleep disturbance, anxiety, gastrointestinal (GIT) or bladder symptoms. We have been using flumazenil for more than 8 years to treat patients presenting complex. The infusions and implants give relief to the anxiety, sleep disturbance and the GIT symptoms as well as urinary symptoms in many well established PTSD patients.
Sleep remained normal following this. The profound recovery of sleep in patients with PTSD using flumazenil and naltrexone by continuous delivery has not previously been described.

cocaine use = assay: Cocaine craving in patients with naltrexone implants; assay type: in vivo, human; conditions: approximately 15 patients, reported by most
From the text: Approximately 15 […] patients have presented specifically for the control of their cocaine use using naltrexone implants. Approximately a third of these patients were from the United Kingdom, a third from Sydney, Australia and a third from Perth, Australia. This group of patients reported a reduction in craving with naltrexone implants, and most reported a reduction in cravings for 6-12 months after receiving the implant. Approximately half returned for repeat implants based on their observations that the naltrexone implant controlled their cravings.

amphetamine use = assay: Amphetamine / methamphetamine craving and withdrawal; assay type: in vivo, human; conditions: naltrexone implants, plasma concentration maintained at 2 ng/ml or higher
Experimental: In those patients that return 2-3 weeks with extreme anxiety and a desire to return to amphetamine use, the commencement of flumazenil infusions followed by a flumazenil implant that sustains a plasma concentration of flumazenil at 0.5-2 ng/ml or more decreases the cravings, including a decrease in the desire for amphetamines and allows reduction f irritability and aggression.

alcohol use = assay: Return to alcohol use on naltrexone with or without flumazenil; assay type: in vivo, human; conditions: naltrexone 2 ng/ml; flumazenil 40 to 160 μg/hour where combined
Experimental: We have observed that in this group of patients complain of increased irritability, increased anxiety, increased sleep disturbance, and/or increased aggressive behaviour. However, when administered together with flumazenil at a concentration of 40 to 160 μg/hour, these systems are controlled.
For patients with a history of relapse on naltrexone implants, the use of sustained release flumazenil with infusions initially and with a series of sustained release flumazenil implants delivering 40-160 μg/hour to sustain a concentration of 0.5 ng/ml or more appear to be useful in controlling the return to alcohol use. For example, we have shown that in women with a history of irritability and return to drinking in the premenstrual days, this treatment with sustained release flumazenil in combination with naltrexone, reduces craving and relapse patterns.

## O=C1CC[C@@]2(O)[C@H]3Cc4ccc(O)c5c4[C@@]2(CCN3CC2CC2)[C@H]1O5 [naltrexone]
Craving for nicotine
  craving for and use of nicotine: reduced craving for nicotine
Cannabis withdrawal
  cannabis craving and impulse control: reduces the craving and improves impulse control
HPA axis
  return of the HPA axis to normal: help return the HPA axis
PTSD
  waking at 2 am with shouting and anxiety: stopped immediately
Cocaine use
  duration of reduction in cravings after receiving the implant: 6-12 months
Amphetamine use
  craving for amphetamine use: significant reduction in craving
Alcohol use
  return to alcohol use: return to drinking alcohol
